In the supplement of paper PMC11061612 one finds Bliss excess data, which are given here for six molecules.

Holding throughout (experiment): Bliss excess, mean over the matrix (fraction); higher = more synergy
In test [1] the test system is NCI-H1993 (Lung Adenocarcinoma). The method, boiled down: (§1)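 Bliss excess equals the observed combination effect minus the expected value EA + EB − EA·EB, where EA and EB are the effects of each agent alone. Combination Emax is the second-highest inhibition within the matrix. Inhibition was scaled from CellTiter-Glo 2.0 luminescence, with 0 set by vehicle wells and 1 by blank wells, after 72 hours of two-drug dosing of cells plated in 1536-well plates.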

For test [2], the system named is COLO-668 (Small Cell Lung Carcinoma). The method, boiled down: as §1
The test system of test [3] is NCI-H1355 (Lung Adenocarcinoma). The essentials: as §1
Test [4] has as its system SKN (Other Solid Carcinomas). The method, boiled down:
as §1

The subject of test [5] is MDA-MB-453 (Breast Carcinoma). The essentials: as §1
Test [6] relates to A4-Fuk (B-Lymphoblastic Leukemia). The method, boiled down: as §1
The test system of test [7] is ME-180 (Cervical Carcinoma). The method, boiled down: as §1
For test [8], the system named is EFO-21 (Ovarian Carcinoma). The method, boiled down:
as §1

Test [9] deals with Ca-Ski (Cervical Carcinoma). The essentials:
as §1

A further test concerns SK-N-AS (Neuroblastoma). The essentials:
as §1

Test [10] has as its system OE33 (Esophageal Adenocarcinoma). The essentials: as §1
In test [11] the test system is MOG-G-UVW (Low Grade Glioma). The essentials:
as §1

Test [12] deals with ML-2 (Acute Myeloid Leukemia). The essentials: as §1
In test [13] the test system is NCI-H522 (Lung Adenocarcinoma). The method, boiled down: as §1
The subject of test [14] is HAL-01 (B-Lymphoblastic Leukemia). The essentials: as §1
Test [15] has as its system SW872 (Other Solid Carcinomas). The method, boiled down: as §1
In test [16] the test system is SW982 (Other Solid Carcinomas). The method, boiled down:
as §1

Test [17] deals with Mo-T (Other Blood Carcinomas). The essentials: as §1
Test [18] deals with KMRC-1 (Kidney Carcinoma). The essentials: as §1
Test [19] has as its system MOLT-4 (T-Lymphoblastic Leukemia). The method, boiled down: as §1

As for `COc1cc2ncnc(Nc3ccc(F)c(Cl)c3)c2cc1OCCCN1CCOCC1` [Gefitinib] + CC(C)n1c(=O)n(C)c2cnc3cc(F)c(-c4ccc(OCCCN5CCCCC5)nc4)cc3c21 [AZD1390] (first compound max 10 µM, 7x7, partner max 0.3 µM), the Bliss excess in [1] was -0.0506; in [2] it was -0.0333; in test [3], -0.039; in test [4] it was -0.0548; in test [5] it was -0.0171; in test [6] it was -0.0704. In addition, the Bliss excess in test [7] is -0.0413; in [8] it was -0.0875; in [9], -0.0785; in the test on SK-N-AS (Neuroblastoma), -0.0588; in test [10], -0.0434; in test [11], -0.0401. Besides, the Bliss excess in test [12] was -0.0237; in test [13], -0.0551; in [14], 0; in test [15], -0.025; in test [16] it was -0.0861; in test [17], -0.0475. The Bliss excess in test [18] was -0.0702; in test [19], 0.009.

On to `COc1cc2c(cc1OCCCCCOc1cc3c(cc1OC)C(=O)N1C=C(C)C[C@H]1C=N3)N=C[C@@H]1CC(C)=CN1C2=O` [SG3199] + O=C(c1cc(Cc2n[nH]c(=O)c3ccccc23)ccc1F)N1CCN(C(=O)C2CC2)CC1 [Olaparib] (first compound max 0.001 µM, 7x7, partner max 10 µM), for which the Bliss excess in [1] is -0.0352; in [2], -0.0003; in [3], -0.0503; in test [4] it was -0.0373; in [5] it was -0.0226; in [6] it was -0.0267. Besides, the Bliss excess in test [7] is -0.0495; in [8] it was -0.0709; in test [9], -0.0425; with SK-N-AS (Neuroblastoma) it was -0.0176; in test [10], -0.0276; in test [11], -0.0081. The Bliss excess in [12] was 0.0179; in test [13] it was -0.0245; in test [14] it was 0.0067; in test [15], -0.0209; in test [16], -0.0195; in test [17], 0.0118. Moreover, the results for the Bliss excess in test [18] and in test [19] were -0.0251 and 0.0061, respectively.

Regarding `N#Cc1cnc(Nc2cc(NC[C@H]3CNCCO3)c(C(F)(F)F)cn2)cn1` [SRA737] + CCc1c2c(nc3ccc(O)cc13)-c1cc3c(c(=O)n1C2)COC(=O)[C@]3(O)CC [SN-38] (first compound max 10 µM, 7x7, partner max 0.3 µM), the Bliss excess is 0.0615 in [1]; -0.0688 in test [2]; 0.071 in [3]; 0.0673 in test [4]; -0.0401 in test [5]; -0.0229 in test [6]. The Bliss excess in test [7] was 0.0247; in test [8], -0.0498; in test [9], 0.0291; in the test on SK-N-AS (Neuroblastoma), 0.0144; in [10], -0.0371; in [11] it was 0.0034. Also, the Bliss excess in test [12] is -0.0549; in test [13], 0.0337; in test [14] it was -0.0125; in test [15] it was -0.0142; in test [16], -0.0929; in test [17] it was -0.0363. Moreover, the Bliss excess in test [18] is -0.0193; in test [19] it was 0.002.

For `N#Cc1cnc(Nc2cc(NC[C@H]3CNCCO3)c(C(F)(F)F)cn2)cn1` [SRA737] + O=c1[nH]cc(F)c(=O)[nH]1 [5-Fluorouracil] (first compound max 10 µM, 7x7, partner max 20 µM), the Bliss excess in [1] was 0.059; in test [2], 0.0106; in [3] it was 0.0349; in [4] it was -0.0266; in test [5] it was 0.108; in test [6] it was 0.0129. In addition, the Bliss excess in test [7] is 0.0272; in test [8], -0.006; in test [9], 0.0604; with SK-N-AS (Neuroblastoma), -0.0291; in [10], 0.0184; in test [11], 0.0006. In addition, the Bliss excess was -0.0476 in test [12]; -0.0524 in test [13]; -0.0463 in test [14]; 0.0629 in test [15]; 0.0157 in [16]; 0.0056 in [17]. Moreover, the Bliss excess in test [18] was determined as 0.0038; in test [19], 0.013.

Turning to `C[C@@H](c1ccc2nccn2c1)n1nnc2ncc(-c3cnn(C)c3)nc21` [Savolitinib] + CC1(C)CCC(CN2CCN(c3ccc(C(=O)NS(=O)(=O)c4ccc(NCC5CCOCC5)c([N+](=O)[O-])c4)c(Oc4cnc5[nH]ccc5c4)c3)CC2)=C(c2ccc(Cl)cc2)C1 [Venetoclax] (first compound max 1 µM, 7x7, partner max 1 µM), the Bliss excess is -0.0306 in [1]; -0.0624 in test [2]; -0.0398 in [3]; -0.0442 in test [4]; -0.0173 in test [5]; -0.0269 in test [6]. Further, the Bliss excess was -0.084 in test [7]; -0.0679 in test [8]; -0.0475 in test [9]; -0.0568 in the test with SK-N-AS (Neuroblastoma); 0.001 in test [10]; 0.0069 in test [11]. The Bliss excess is 0.0096 in test [12]; -0.0504 in [13]; -0.0387 in [14]; -0.0203 in [15]; -0.046 in test [16]; -0.0492 in test [17]. For the same molecule, the results for the Bliss excess in test [18] and in test [19] were -0.0899 and 0.0879, respectively.

Take `C[C@@H](c1ccc2nccn2c1)n1nnc2ncc(-c3cnn(C)c3)nc21` [Savolitinib] + Cc1c2c(nn1C)CSCc1cc(n(C)n1)CSc1cc(c3ccccc3c1)OCCCc1c(C(=O)O)n(C)c3c-2c(Cl)ccc13 [AZD5991] (first compound max 1 µM, 7x7, partner max 1 µM): the Bliss excess in [1] was -0.0338; in [2], -0.0417; in test [3], -0.0155; in test [4] it was -0.0279; in test [5], 0.0354; in [6], 0.0027. For the same molecule, the Bliss excess in test [7] is -0.0651; in [8], -0.0454; in [9] it was -0.0287; in the test with SK-N-AS (Neuroblastoma), -0.0749; in test [10], -0.0152; in test [11], 0.0359. The Bliss excess in test [12] was -0.0082; in test [13] it was -0.0353; in test [14] it was 0.0173; in test [15], 0.003; in [16], -0.0647; in test [17], -0.056. In addition, the Bliss excess is -0.0473 in test [18] and 0.0706 in test [19].
